The test system of test [1] is human cervical carcinoma Hela cells. Description: MTT cell viability assay, Hela. It is filed as cell-based. To be noted: 48 h, read-out: Cell viability as a percentage of the cells treated with DMSO, Hela. In a few lines:
(§1)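 Compound tested at two concentrations, 20 uM and 40 uM, on cells kept in 10% FBS/DMEM. MTT assay; percent of DMSO.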

The target of test [2] is T1, FXR ligand binding domain (LBD) (Homo sapiens, UniProt Q96RI1).
T1 construct: made in house
T1 sequence (Q96RI1 262-486 limits assumed): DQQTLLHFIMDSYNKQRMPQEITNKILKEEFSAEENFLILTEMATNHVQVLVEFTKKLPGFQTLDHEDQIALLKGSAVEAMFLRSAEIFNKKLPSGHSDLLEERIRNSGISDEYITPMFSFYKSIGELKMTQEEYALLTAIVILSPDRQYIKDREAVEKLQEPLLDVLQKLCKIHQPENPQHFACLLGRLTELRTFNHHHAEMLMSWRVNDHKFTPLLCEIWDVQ
Description: AlphaScreen assay: FXR LBD recruitment of coregulator peptide motifs (SRC2-3, SRC1-2). The format is biochemical. Background: Bead proximity is the source of the signal in Alpha formats.

In test [3] the test system is RA-resistant human colon cancer HCT116 cells. Kind of test: MTT cell viability assay, HCT116. The format is cell-based. To be noted: 48 h, read-out: Cell viability as a percentage of the cells treated with DMSO, HCT116; for viability at 20 µM: HCT-116, 20 uM; for viability at 40 µM: HCT-116, 40 uM. An outline of the steps: as §1
(In general: Tetrazolium dyes change colour on reduction, which living cells bring about.)

Another test deals with T2, full-length FXR (Homo sapiens, UniProt Q96RI1).
T2 construct: The cells were co-transfected with plasmids encoding full-length FXR and the cognate luciferase reporter EcRE-Luc; expressed in transfected cells; host or cells: COS-7
T2 sequence (Q96RI1 1-486): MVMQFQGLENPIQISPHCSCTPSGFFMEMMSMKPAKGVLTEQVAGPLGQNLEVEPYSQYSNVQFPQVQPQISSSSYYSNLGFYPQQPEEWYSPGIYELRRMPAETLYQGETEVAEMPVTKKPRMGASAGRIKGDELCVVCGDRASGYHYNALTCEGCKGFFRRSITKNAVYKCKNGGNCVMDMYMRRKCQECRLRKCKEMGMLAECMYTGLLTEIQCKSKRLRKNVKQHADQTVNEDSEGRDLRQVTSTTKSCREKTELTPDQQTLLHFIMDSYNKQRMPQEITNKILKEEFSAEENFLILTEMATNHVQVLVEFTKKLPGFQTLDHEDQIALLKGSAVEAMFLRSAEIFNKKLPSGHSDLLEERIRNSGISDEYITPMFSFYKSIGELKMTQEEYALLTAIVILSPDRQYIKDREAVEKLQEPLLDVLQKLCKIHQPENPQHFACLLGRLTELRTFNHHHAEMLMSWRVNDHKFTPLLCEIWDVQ
Kind of test: Cell-based FXR transactivation, EcRE luciferase reporter in COS-7 cells. To be noted: for Cell-based FXR transactivation Fold changes by 5 μM compound: positive: induction, minus: repression; for EC50 / fold induction at 5 µM: EcRE luciferase reporter; for Cell-based FXR transactivation Fold changes by 5 μM compound / fold induction at 5 µM: 5 μM compound. An outline of the steps: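 COS-7 cells were transiently cotransfected with full-length FXR, EcRE-Luc reporter and a renilla control. Ligands were added 5 h after transfection, and cells were harvested 24 h later. Firefly luciferase was normalized to renilla in a dual-luciferase read-out.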
On the technique in general: In a reporter assay the amount or activity of a reporter protein is the signal.

The subject of test [4] is human breast cancer MCF7 cells. Kind of test: MTT cell viability assay, MCF-7. It is filed as cell-based. The following applies: 48 h, read-out: Cell viability as a percentage of the cells treated with DMSO, MCF-7. In a few lines: as §1
The subject of test [5] is human colorectal adenocarcinoma HCT15 cells. Kind of test: MTT cell viability assay, HCT15. It is filed as cell-based. The following applies: 48 h, read-out: Cell viability as a percentage of the cells treated with DMSO, HCT15; for viability at 20 µM: HCT-15, 20 uM; for viability at 40 µM: HCT-15, 40 uM. In a few lines: as §1
In test [6] the test system is human hepatoma HepG2 cells. Kind of test: MTT cell viability assay, HepG2. To be noted: 48 h, read-out: Cell viability as a percentage of the cells treated with DMSO, HepG2. The format is cell-based. In a few lines:
as §1

[7] abbreviates: SRC1-2 peptide, Table 2, read-out: EC50 (μM) of FXR binding by AlphaScreen assay recruit SRC1-2.
[8] abbreviates: SRC2-3 peptide, Table 2, read-out: EC50 (μM) of FXR binding by AlphaScreen assay recruit SRC2-3.
The mark [9] stands for this setting: SRC1-2 peptide, Table 1, read-out: EC50 (μM) of FXR binding by AlphaScreen assay recruit SRC1-2.
[10] abbreviates: SRC2-3 peptide, Table 1, read-out: EC50 (μM) of FXR binding by AlphaScreen assay recruit SRC2-3.

Like-named read-outs stand apart in the source and are kept apart here.

A word on the viability: it is a read-out of living cells in per cent, often relative to untreated cells. As a reminder, the EC50 is the concentration at which the effect is half-maximal. As usually defined, the fold induction is the ratio of treated to control signal.

Consider `CC1(C)C2CCC1(C)C(OC(=O)c1ccc(N)cc1)C2` (stereo not shown) [XD-5, 1,7,7-trimethyl-bicyclo[2.2.1]-heptan-2-yl 4-aminobenzoate], for which the viability at 20 µM in test [1] was 93 ± 4%; in test [3], 88 ± 2%; in test [4] it was 100 ± 3%; in test [5] it was 80 ± 4%; in test [6], 95 ± 1%. Moreover, the viability at 40 µM was determined as 46 ± 3% in test [1]; 30 ± 3% in test [3]; 20% in test [4]; 30 ± 4% in test [5]; 40 ± 1% in test [6]. Besides, the values for the EC50 (in test [2] (setting [7]); in test [2] (setting [8]); at full-length FXR (Table 2)) were less than 1 µM, less than 1 µM and less than 1000 nM, respectively. At full-length FXR (Table 2), the “Cell-based FXR transactivation Fold changes by 5 μM compound” value is reported as more than 10.
Regarding `COc1cc(C(=O)O[C@H]2C[C@H]3CC[C@]2(C)C3(C)C)ccc1O` [Tschimganine], the viability at 20 µM amounted to 98 ± 2% in test [1]; 97 ± 1% in test [3]; 100 ± 3% in test [4]; 100 ± 1% in test [5]; 100 ± 1% in test [6]. Besides, the viability at 40 µM was 97 ± 4% in test [1]; 90 ± 4% in test [3]; 99 ± 3% in test [4]; 80 ± 9% in test [5]; 97 ± 3% in test [6]. Besides, the 50% effective concentration (EC50) was less than 1 µM in test [2] (setting [9]), less than 1 µM in test [2] (setting [10]) and less than 1000 nM at full-length FXR (Table 1). In addition, the fold induction at 5 µM on full-length FXR (Table 1) was more than 10.
On to `Nc1ccc(C(=O)OC2CCC3CCCCC3C2)cc1` (stereo not shown) [XD-23, decahydro-naphthalen-2-yl 4-aminobenzoate], for which the viability at 20 µM is 100 ± 2% in test [1]; 75 ± 2% in test [3]; 100 ± 2% in test [4]; 81 ± 2% in test [5]; 100 ± 2% in test [6]. The viability at 40 µM in test [1] is 95 ± 3%; in test [3] it was 72 ± 2%; in test [4], 98 ± 2%; in test [5], 48 ± 2%; in test [6], 100 ± 2%. The EC50 was less than 0.5 µM in test [2] (setting [7]), less than 0.5 µM in test [2] (setting [8]) and less than 1000 nM on full-length FXR (Table 2). At full-length FXR (Table 2), the “Cell-based FXR transactivation Fold changes by 5 μM compound” value is given as −30.
As for `COc1cc(C(=O)OC2CCC3CCCCC3C2)ccc1[N+](=O)[O-]` (stereo not shown) [XD-36, decahydro-naphthalen-2-yl 3-methoxy-4-nitrobenzoate], the viability at 20 µM stood at 93 ± 3% in test [1]; 93 ± 3% in test [3]; 100 ± 3% in test [4]; 100 ± 3% in test [5]; 100 ± 3% in test [6]. Moreover, the viability at 40 µM amounted to 85 ± 3% in test [1]; 91 ± 3% in test [3]; 87% in test [4]; 92 ± 3% in test [5]; 81 ± 3% in test [6]. The concentration giving a half-maximal response (EC50) in test [2] (setting [8]) lay within 1 to 10 µM; on full-length FXR (Table 2), 1000 to 10000 nM. In addition, the “Cell-based FXR transactivation Fold changes by 5 μM compound” value on full-length FXR (Table 2) is recorded as 3.
As for `O=C(OC1CCCCCCC1)c1ccc(O)cc1` [XD-10, cyclooctyl 4-hydroxybenzoate], the viability at 20 µM in test [1] is 90 ± 4%; in test [3], 92 ± 6%; in test [4] it was 93 ± 7%; in test [5] it was 60 ± 4%; in test [6], 90 ± 3%. For the same compound, the viability at 40 µM turned out to be 40 ± 3% in test [1]; 30 ± 4% in test [3]; 28% in test [4]; 41 ± 4% in test [5]; 35 ± 1% in test [6]. In addition, the concentration for a half-maximal effect (EC50) is less than 1 µM in test [2] (setting [9]), less than 1 µM in test [2] (setting [10]) and less than 1000 nM at full-length FXR (Table 1). At full-length FXR (Table 1), this compound had a fold induction at 5 µM of 8.
For the compound `C/C1=C\CCC(C)(O)/C=C/C(C(C)C)C(OC(=O)c2ccc(O)cc2)C1` (stereo not shown) [Feroline], the viability at 20 µM in test [1] amounted to 83%; in test [3], 100 ± 5%; in test [4], 92 ± 13%; in test [5], 100 ± 2%; in test [6] it was 84%. The viability at 40 µM in test [1] was found to be 67 ± 3%; in test [3] it was 80 ± 2%; in test [4], 86 ± 12%; in test [5], 76 ± 6%; in test [6], 65 ± 3%. Also, the EC50 is less than 1 µM in test [2] (setting [9]), less than 1 µM in test [2] (setting [10]) and less than 1000 nM at full-length FXR (Table 1). In addition, the fold induction at 5 µM at full-length FXR (Table 1) was more than 10.
As to `COc1cc(C(=O)OC2C/C(C)=C/CC/C(C)=C/[C@@H](O)[C@H]2C(C)C)ccc1O` (stereo partly shown) [Tschimganidine], the viability at 20 µM in test [1] came to 96%; in test [3], 95 ± 4%; in test [4] it was 100 ± 4%; in test [5], 85 ± 9%; in test [6] it was 94%. Also, the viability at 40 µM came to 30 ± 5% in test [1]; 40 ± 7% in test [3]; 85% in test [4]; 60 ± 10% in test [5]; 48 ± 4% in test [6]. The EC50 is less than 1 µM in test [2] (setting [9]), less than 1 µM in test [2] (setting [10]) and less than 1000 nM at full-length FXR (Table 1). The compound further had a fold induction at 5 µM at full-length FXR (Table 1) of more than 10.
Take `Cc1cc(C(=O)OC2CCC3CCCCC3C2)ccc1[N+](=O)[O-]` (stereo not shown) [XD-35, decahydro-naphthalen-2-yl 3-methyl-4-nitro-benzoate]: the viability at 20 µM was 94 ± 2% in test [1]; 95 ± 2% in test [3]; 100 ± 2% in test [4]; 100 ± 2% in test [5]; 100 ± 2% in test [6]. Moreover, the viability at 40 µM in test [1] was found to be 93 ± 2%; in test [3], 93 ± 2%; in test [4], 100 ± 2%; in test [5] it was 93 ± 2%; in test [6], 93 ± 2%. Also, the values for the EC50 (in test [2] (setting [8]); on full-length FXR (Table 2)) were 1 to 10 µM and 1000 to 10000 nM, respectively. The “Cell-based FXR transactivation Fold changes by 5 μM compound” value on full-length FXR (Table 2) is on record as 2.
Take `Cc1cc(C(=O)OC2CC3CCC2(C)C3(C)C)ccc1N` (stereo not shown) [XD-4, 1,7,7-trimethyl-bicyclo[2.2.1]-heptan-2-yl 4-amino-3-methylbenzoate]: the viability at 20 µM is 95 ± 4% in test [1]; 81 ± 2% in test [3]; 100 ± 9% in test [4]; 79 ± 2% in test [5]; 90 ± 5% in test [6]. Also, the viability at 40 µM in test [1] is 36 ± 2%; in test [3], 27 ± 1%; in test [4] it was 23%; in test [5] it was 41 ± 3%; in test [6], 42 ± 1%. Also, the EC50 in test [2] (setting [7]) is less than 1 µM; in test [2] (setting [8]), less than 1 µM; at full-length FXR (Table 2), less than 1000 nM. Moreover, the “Cell-based FXR transactivation Fold changes by 5 μM compound” value at full-length FXR (Table 2) is reported as more than 10.

For the origin of these results see patent US20180116993A1, “MODULATORS OF FARNESOID X RECEPTOR AND METHODS FOR THE USE THEREOF” (XIAMEN UNIVERSITY, priority 2015, published 2018).
